Assay results as given in patent publication US11096961B2, “Pharmaceutical composition for suppressing spinal cord ischemic disorder” (SUMITOMO SEIKA CHEMICALS CO., LTD., priority 2019, dated 2021).

Assays:
[1] = system: mouse transient spinal cord ischemia model; assay: Measurement of spinal cord blood flow (SCBF) after release of blood flow interception; assay type: in vivo; conditions: inhalation of 5% carbon dioxide gas from cannulation until end of model creation; SCBF before interception = 100%; measured for 480 seconds after release of interception; compared with 100% oxygen control; FIG. 1
Text: (§1) An 8 to 12-week-old male mouse was used for creating a mouse transient spinal cord ischemia model. The mouse was subjected to endotracheal intubation under anesthesia by the inhalation of isoflurane and cannulation for measuring blood pressure in the left femoral artery. The cervix and a part of the sternum were incised, and the left common carotid artery, the aortic arch, and the left subclavian artery were exposed. The blood flow was intercepted at the aortic arch and the left subclavian artery base using two vascular clips. The vascular clips were removed 4 minutes and 30 seconds after the blood flow interception, and the blood flow interception was released. […]
(§2) The inhalation of 5% carbon dioxide gas was started from the cannulation in the process of creating the mouse transient spine ischemia model, and the inhalation was continued until the end of the model creation. […] The spinal cord blood flow (SCBF) before the blood flow interception was defined as 100%, and the spinal cord blood flow was measured for 480 seconds after the blood flow interception was released. A known method (Basso et al., J Nurotrauma, 23(5): 635-59, 2006) was partially modified, and the motor functions were continuously evaluated by the Basso Mouse Scale (BMS) 24, 48 and 72 hours after spinal cord ischemia. […]

[2] = system: mouse transient spinal cord ischemia model; assay: Evaluation of motor function by Basso Mouse Scale (BMS) after spinal cord ischemia; assay type: in vivo; conditions: inhalation of 5% carbon dioxide gas, compared with 100% oxygen controls, FIGS. 2A-2B
Text: as §1, §2

O=C=O [5% carbon dioxide gas, carbon dioxide]
spinal cord blood flow (SCBF) in the ischemic state [1]: improved more rapidly | decreases in the motor functions (Basso Mouse Scale) ([2]; BMS 24, 48 and 72 hours after spinal cord ischemia): hardly observed | onset of late-onset paraplegia ([2]; BMS=0 to 5 is paraplegia or death, 24, 48 and 72 hours after ischemia): suppressed remarkably
